Data published in patent publication US6472348B1, “Pyridone derivatives and herbicides” (Kumiai Chemical Industry Co., Ltd., priority 1996, dated 2002).

Legend:
barnyardgrass (Ec) [1] = assay: Test Example 1: herbicidal effects by paddy field soil treatment; format: in vivo; conditions: 100 g of the active ingredient per 10 ares, 21st day after the application, index 0-5 of Table 47;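 further: grade of growth control; 5 = at least 90%; 4 = 70 to 90%; 3 = 50 to 70%; 2 = 30 to 50%; 1 = 10 to 30%; 0 = under 10%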
Procedure, shortened: (§1)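 Scoring of herbicidal effect came 21 days after application of 100 g active ingredient per 10 ares to flooded (3 cm) paddy-soil pots sown with barnyardgrass, monochoria and bulrush, kept in a greenhouse.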

bulrush (Sc) = assay: as above; format: in vivo; conditions: 100 g of the active ingredient per 10 ares, 21st day after the application, index 0-5 of Table 47;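 further: grade of growth control; 5 = at least 90%; 4 = 70 to 90%; 3 = 50 to 70%; 2 = 30 to 50%; 1 = 10 to 30%; 0 = under 10%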
Procedure, shortened: as §1

monochoria (Mo) = assay: as above; format: in vivo; conditions: 100 g of the active ingredient per 10 ares, 21st day after the application, index 0-5 of Table 47;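 further: grade of growth control; 5 = at least 90%; 4 = 70 to 90%; 3 = 50 to 70%; 2 = 30 to 50%; 1 = 10 to 30%; 0 = under 10%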
Procedure, shortened: as §1

Digitaria ciliaris (Di) = assay: Test Example 2: herbicidal effects by upland field soil treatment; format: in vivo; conditions: 100 g of the active ingredient per 10 ares, evaluated on the 21st day after application;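 further: grade of growth control; 5 = at least 90%; 4 = 70 to 90%; 3 = 50 to 70%; 2 = 30 to 50%; 1 = 10 to 30%; 0 = under 10%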
Source text: (§2) (Test on Herbicidal Effects by Upland Field Soil Treatment)

barnyardgrass (Ec) [2] = assay: as above; format: in vivo; conditions: 100 g of the active ingredient per 10 ares, evaluated on the 21st day after application
Source text: as §2

[3] = tested on: common lambsquarters (Ch); assay: as above; format: in vivo; conditions: 100 g of the active ingredient per 10 ares, evaluated on the 21st day after application
Source text: as §2

pale smartweed (Po) [4] = assay: as above; format: in vivo; conditions: 100 g of the active ingredient per 10 ares, evaluated on the 21st day after application
Source text: as §2

rice flatsedge (Ci) [5] = assay: as above; format: in vivo; conditions: 100 g of the active ingredient per 10 ares, evaluated on the 21st day after application
Source text: as §2

slender amaranth (Am) [6] = assay: as above; format: in vivo; conditions: 100 g of the active ingredient per 10 ares, evaluated on the 21st day after application
Source text: as §2

corn (Ze) = assay: Test Example 11: crop plant selectivity by upland field foliage treatment (corn), phytotoxicity; conditions: upland field foliage treatment, dose 1.6 g ai/10a, 14th day after treatment
Procedure, shortened: (§3)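 Corn with pale smartweed, slender amaranth, common lambsquarters and China jute sown in sand-filled pots and grown 2 weeks in a greenhouse before foliage treatment. Herbicidal effect and crop phytotoxicity scored on day 14 after treatment against a rating standard.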

China jute (Ab) [7] = assay: Test Example 11: crop plant selectivity by upland field foliage treatment (corn), herbicidal effects; format: in vivo; parameters: scale not given here; conditions: upland field foliage treatment (corn test), dose 1.6 g ai/10a, 14th day after treatment
Procedure, shortened: as §3

[8] = tested on: common lambsquarters (Ch); assay: as above; format: in vivo; parameters: scale not given here; conditions: upland field foliage treatment (corn test), dose 1.6 g ai/10a, 14th day after treatment
Procedure, shortened: as §3

pale smartweed (Po) [9] = assay: as above; format: in vivo; parameters: scale not given here; conditions: upland field foliage treatment (corn test), dose 1.6 g ai/10a, 14th day after treatment
Procedure, shortened: as §3

slender amaranth (Am) [10] = assay: as above; format: in vivo; parameters: scale not given here; conditions: upland field foliage treatment (corn test), dose 1.6 g ai/10a, 14th day after treatment
Procedure, shortened: as §3

Diaitaria ciliaris (Di) = assay: Test Example 3: herbicidal effects by upland field foliage treatment; format: in vivo; parameters: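 grade of growth control; 5 = at least 90%; 4 = 70 to 90%; 3 = 50 to 70%; 2 = 30 to 50%; 1 = 10 to 30%; 0 = under 10%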; conditions: 100 g active ingredient per 10 ares, evaluated 14th day after treatment
Procedure, shortened: (§4)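 Test plants had been raised from seed for 2 weeks in a greenhouse, in soil-covered sand pots of 120 cm^2, and were returned there after spraying.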

barnyardgrass (Ec) [11] = assay: as above; format: in vivo; parameters: scale not given here; conditions: 100 g active ingredient per 10 ares, evaluated 14th day after treatment
Procedure, shortened: as §4

[12] = tested on: common lambsquarters (Ch); assay: as above; format: in vivo; parameters: scale not given here; conditions: 100 g active ingredient per 10 ares, evaluated 14th day after treatment
Procedure, shortened: as §4

pale smartweed (Po) [13] = assay: as above; format: in vivo; parameters: scale not given here; conditions: 100 g active ingredient per 10 ares, evaluated 14th day after treatment
Procedure, shortened: as §4

rice flatsedge (Ci) [14] = assay: as above; format: in vivo; parameters: scale not given here; conditions: 100 g active ingredient per 10 ares, evaluated 14th day after treatment
Procedure, shortened: as §4

slender amaranth (Am) [15] = assay: as above; format: in vivo; parameters: scale not given here; conditions: 100 g active ingredient per 10 ares, evaluated 14th day after treatment
Procedure, shortened: as §4

wheat (Tr) = assay: Test Example 9: crop plant selectivity by upland field foliage treatment (wheat), phytotoxicity; conditions: dose 1.6 g ai/10a, 14th day after treatment
Procedure, shortened: (§5)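 Wheat and broadleaf weeds were sown together in sand-filled pots and grown for 2 weeks in a greenhouse before foliar treatment. Herbicidal effect on weeds and phytotoxicity to wheat were scored visually against set grading standards on day 14 after treatment, with plants kept in the greenhouse.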

China jute (Ab) [16] = assay: Test Example 9: crop plant selectivity by upland field foliage treatment (wheat), herbicidal effects; format: in vivo; parameters: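 grade of growth control; 5 = at least 90%; 4 = 70 to 90%; 3 = 50 to 70%; 2 = 30 to 50%; 1 = 10 to 30%; 0 = under 10%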; conditions: dose 1.6 g ai/10a, 14th day after treatment
Procedure, shortened: as §5

[17] = tested on: common lambsquarters (Ch); assay: as above; format: in vivo; parameters: scale not given here; conditions: dose 1.6 g ai/10a, 14th day after treatment
Procedure, shortened: as §5

pale smartweed (Po) [18] = assay: as above; format: in vivo; parameters: scale not given here; conditions: dose 1.6 g ai/10a, 14th day after treatment
Procedure, shortened: as §5

slender amaranth (Am) [19] = assay: as above; format: in vivo; parameters: scale not given here; conditions: dose 1.6 g ai/10a, 14th day after treatment
Procedure, shortened: as §5

Cn1c(C(F)(F)F)ccc(-c2c(F)cc(Cl)c3oc(C(=O)O)cc23)c1=O [Compound No. 4-26, 3-(2-carboxy-7-chloro-5-fluorobenzofuran-4-yl)-1-methyl-6-trifluoromethyl-2-(1H)-pyridone]
Herbicidal effects Ec (barnyardgrass (Ec) [1]): 5
Herbicidal effects Sc (bulrush (Sc)): 5
Herbicidal effects Mo (monochoria (Mo)): 5
Herbicidal effects Di (Digitaria ciliaris (Di)): 5
Herbicidal effects Ec (barnyardgrass (Ec) [2]): 5
Herbicidal effects Ch [3]: 5
Herbicidal effects Po (pale smartweed (Po) [4]): 5
Herbicidal effects Ci (rice flatsedge (Ci) [5]): 5
Herbicidal effects Am (slender amaranth (Am) [6]): 5
Phytotoxicity Ze (corn (Ze)): 1
Herbicidal effects Ab (China jute (Ab) [7]): 5
Herbicidal effects Ch [8]: 5
Herbicidal effects Po (pale smartweed (Po) [9]): 5
Herbicidal effects Am (slender amaranth (Am) [10]): 5
melting point: 233 to 235 °C

Cn1c(C(F)(F)F)ccc(-c2c(F)cc(Cl)c3oc(C(Br)Br)cc23)c1=O [Compound No. 4-27, 3-(7-chloro-2-dibromomethyl-5-fluorobenzofuran-4-yl)-1-methyl-6-trifluoromethyl-2-(1H)-pyridone]
Herbicidal effects Ec (barnyardgrass (Ec) [1]): 5
Herbicidal effects Sc (bulrush (Sc)): 5
Herbicidal effects Mo (monochoria (Mo)): 5
Herbicidal effects Di (Digitaria ciliaris (Di)): 5
Herbicidal effects Ec (barnyardgrass (Ec) [2]): 4
Herbicidal effects Ch [3]: 5
Herbicidal effects Po (pale smartweed (Po) [4]): 5
Herbicidal effects Ci (rice flatsedge (Ci) [5]): 5
Herbicidal effects Am (slender amaranth (Am) [6]): 5
Herbicidal effects Di (Diaitaria ciliaris (Di)): 5
Herbicidal effects Ec (barnyardgrass (Ec) [11]): 4
Herbicidal effects Ch [12]: 5
Herbicidal effects Po (pale smartweed (Po) [13]): 5
Herbicidal effects Ci (rice flatsedge (Ci) [14]): 5
Herbicidal effects Am (slender amaranth (Am) [15]): 5
Phytotoxicity Tr (wheat (Tr)): 2
Herbicidal effects Ab (China jute (Ab) [16]): 5
Herbicidal effects Ch [17]: 5
Herbicidal effects Po (pale smartweed (Po) [18]): 5
Herbicidal effects Am (slender amaranth (Am) [19]): 5
Phytotoxicity Ze (corn (Ze)): 2
Herbicidal effects Ab (China jute (Ab) [7]): 5
Herbicidal effects Ch [8]: 5
Herbicidal effects Po (pale smartweed (Po) [9]): 5
Herbicidal effects Am (slender amaranth (Am) [10]): 5
melting point: 107 to 109 °C
